{"source": "patent US12109294B2", "about": "“Oily moisturizer and topical skin composition containing same” (The Nisshin OilliO Group, Ltd., priority 2018, dated 2024)", "tested_on": "skin stratum corneum (forearm)", "test": "Evaluation test of moisture retention effect upon single application of esterified product (stratum corneum moisture content, SKICON-200)", "type": "in vivo, human", "source_text": "The moisture content of the stratum corneum can be investigated using the electrical conductivity (μS) of the stratum corneum. The electrical conductivity (μS) of the stratum corneum is dependent on the water content of the stratum corneum, and the greater the moisture content of the stratum corneum, the larger the electrical conductivity (μS) of the stratum corneum becomes. The electrical conductivity (μS) of the stratum corneum can be measured by a constant-pressure sensor probe contact high-frequency conductance exchange method. Specifically, the electrical conductivity (μS) of the stratum corneum can be measured by using a stratum corneum moisture content measuring device based on the above measurement method, such as a stratum comeum moisture content measuring device “SKICON-200” manufactured by IBS Co., Ltd.\nAfter maintaining the state with the oily moisturizer applied to the skin for a certain period, for example 30 to 90 minutes, the oily moisturizer is removed from the skin surface. […] Using the obtained values for the electrical conductivity (uS) of the stratum corneum before and after application of the oily moisturizer, the moisture retention effect value is calculated and the moisture retention effect is evaluated. […]\nSubsequently, 40 μL of the test sample being evaluated was applied uniformly to the square measurement region of the forearm. […]", "data": [{"smiles": "OCC(O)CO", "note": "[glycerol]", "values": [{"measurement": "Increase in the electrical conductivity that corresponds with the moisture retention effect value", "setting": "60 minutes after application, still applied to the skin surface, prior to removal using water", "value": 477, "unit": "μS"}, {"measurement": "Moisture retention effect value", "setting": "single application, removal with cotton swab immersed in water rather than hexane", "value": 8, "unit": "μS"}]}]}
